Data: PMC5376947, “Cytotoxicity of Zardaverine in Embryonal Rhabdomyosarcoma from a Costello Syndrome Patient” (Frontiers in Oncology, 2017)
Like-named read-outs stand apart in the source and are kept apart here.

Assays:
[1] = system: PDE4; conditions: PDE 4, read-out: Reported PDE inhibition IC50, cited from earlier work
[2] = system: CS242 ERMS (screening) cells; experiment: CS242 ERMS (screening) cell viability assay, CellTiter-Glo, 72 h; conditions: 72 h, top 18.8, 75 or 93.8 μM, mean ± SD (n = 3)
Description: To generate cells optimized for high-throughput screening (HTS), one vial of frozen cells from the CS242 ERMS (initial) master cell bank was thawed in a 37°C water bath for 2 min, diluted by dropwise addition of 10 volumes of PBS, pelleted at 200 × g for 5 min, resuspended in PBS, pelleted, resuspended in medium, and transferred to a T75 flask. Cells were grown to 70% confluence over 27 days, with media changes every 3 days. Cells were then detached by trypsin treatment as described above [see CS242 ERMS (Initial)] and split at 1:20 into T150 flasks, giving 20 individual cultures at passage 7. After growth for a further 27 days with media changes every 3 days, cells reached 70% confluence and were detached and frozen as described above [see CS242 ERMS (Initial)] to give a working cell bank at passage 8.
Cell growth in 384-well plates was assessed daily for 5 days to determine the optimal starting cell number giving progressive growth suitable for a 72-h cell viability assay. One vial of CS242 ERMS cells was thawed from the screening bank and grown in a T75 flask until confluence was >70%, after which cells were detached using trypsin and counted as described above [see CS242 ERMS (Zardaverine Resistant)].
Using an electronic 16-channel pipettor (Finnpipette Novus MCP16), 40 μl of each cell dilution was dispensed into two columns of a TC-treated opaque white 384-well plate, giving a range of 10,000 to 78 cells/well. Columns 1, 2, 23, and 24 were filled with media alone (40 μl/well). Five replicate plates were covered with MicroClime environmental lids (Labcyte) to minimize evaporation and incubated at 37°C, 5% CO2 for 24, 48, 72, 96, and 120 h, respectively. A sixth plate was prepared for determination of cell viability at the time of cell seeding. To determine cell viability, plates were allowed to cool to room temperature for 1 h after removal from 37°C incubation, 20 μl/well of CellTiter-Glo was added using a MicroFlo Select microplate reagent dispenser (BioTek, Winooski, VT, USA), and luminescence was measured after an additional 30 min at room temperature using an EnVision microplate reader (PerkinElmer, Waltham, MA, USA).
The IC50 of dactinomycin was determined using cells passaged once from the CS242 ERMS (screening) cell bank [see CS242 ERMS (Screening)]. Cells were thawed, grown to 70% confluence over 3 days in a T75 flask, detached by trypsin treatment, seeded at 1,250 cells in 30 μl of media/well in 384-well opaque white TC plates, and allowed to attach overnight. […] After 72 h of cell growth in the presence of dactinomycin, 20 μl of CellTiter-Glo was added, and cell viability was determined as described above (see Cell Viability Assay Development). Percent viability was determined from luminescence values using high controls (no dactinomycin) and low controls (media alone; no cells), and IC50 values were calculated using four-parameter dose–response curve fitting analysis in GraphPad Prism.
The 2,000-compound Microsource Spectrum library was screened using a fresh batch of CS242 ERMS (screening) cells for each HTS run, prepared as described above (see Cell Viability Assay Development). […] Media alone was added to low control (background) wells in columns 2 and 24. Plates were covered using MicroClime environmental lids (Labcyte), and cells were allowed to attach overnight (≤12 h) at 37°C in an atmosphere of 5% CO2.
Compounds were delivered to columns 3–22 of assay plates containing attached cells via an intermediate dilution. […] Likewise, DMSO was added to columns 1, 2, 23, and 24 for high and low controls, matching the 0.06% DMSO in the test wells.

[3] = system: PDE3; conditions: PDE 3, read-out: Reported PDE inhibition IC50, cited from earlier work
[4] = system: glucocorticoid receptor (GR) activation; set-up: method as in earlier work; conditions: 18 h treatment; ref [30]; cited from earlier work
[5] = read-out: CS242 ERMS viability IC50, Table 3 PDE inhibitor panel
[6] = Homo sapiens, read-out: CS242 ERMS viability IC50, Table 3 PDE inhibitor panel

In the case of CCCCOc1cc(CC2CNC(=O)N2)ccc1OC (stereo not shown) [Ro 20-1724], the IC50 ([1]; ref [23]) is given as 2000 nM and the IC50 [2, 5] is given as greater than 18800 nM.

For O=c1c2cccnc2n(-c2cccc([N+](=O)[O-])c2)c(=O)n1Cc1ccncc1 [RS 25344], the IC50 ([1]; ref [25]) is given as 0.28 nM and the IC50 [2, 5] is given as greater than 93800 nM.

For O=C1CCc2cc(OCCCCc3nnnn3C3CCCCC3)ccc2N1 [Cilostazol], the IC50 [2, 6] is listed as greater than 93800 nM and the IC50 ([3]; ref [24]) is listed as 200 nM.

In the case of Cc1[nH]c(=O)c(C#N)cc1-c1ccncc1 [Milrinone], the IC50 [2, 6] is given as greater than 18800 nM and the IC50 ([3]; ref [21]) is given as 56 nM.

In the case of COc1cc2c(cc1OC)-c1c/c(=N\c3c(C)cc(C)cc3C)n(C)c(=O)n1CC2 [Trequinsin], the IC50 [2, 6] is listed as 36500 nM and the IC50 ([3]; ref [16]) is listed as 0.25 nM.

For COc1ccc([C@H](Cc2ccncc2)c2ccccc2)cc1OC1CCCC1 [CDP 840], the IC50 ([1]; ref [15]) is given as 12 nM and the IC50 [2, 6] is given as 27800 nM.

In the case of CN(C(=O)CCCOc1ccc2[nH]c(=O)ccc2c1)C1CCCCC1 [Cilostamide], the IC50 [2, 6] is given as greater than 18800 nM, the IC50 ([3]; ref [19], [20]) is given as 27 nM and the “activity in GR activation screen, in words” value [4] is given as “inactive”.

In the case of (R)-(−)-rolipram, the IC50 ([1]; ref [22]) is listed as 220 nM and the IC50 [2, 5] is listed as greater than 18800 nM.

In the case of CCCn1c(=O)c(C)cn2nc(N)nc12 [ICI 63197], the IC50 ([1]; ref [26]) is listed as 35 nM and the IC50 [2, 5] is listed as greater than 93800 nM.

For COc1ccc(C(=O)Nc2c(Cl)cncc2Cl)cc1OC1CCCC1 [Piclamilast], the IC50 ([1]; ref [17]) is given as 1 nM and the IC50 [2, 6] is given as 55800 nM.

In the case of CCc1ccc2c(-c3cccc(Cl)c3)nc(=O)n(CC)c2n1 [YM 976, 4-(3-chlorophenyl)-1,7-diethylpyrido[2,3-d]pyrimidin-2(1H)-one], the IC50 ([1]; ref [18]) is given as 2.2 nM and the IC50 [2, 6] is given as 60700 nM.

In the case of CN/C(=N\c1ccc(C2=NNC(=O)CC2C)cc1)NC#N (stereo not shown) [Siguazodan], the IC50 [2, 6] is listed as greater than 93800 nM and the IC50 ([3]; ref [21]) is listed as 117 nM.
